The text below walks through data of PubChem BioAssay (NCI).

Assay in all cases: inhibition of tumour cell growth, NCI panel, 48 h
For test [1], the system named is A498 renal.
The test system of test [2] is HL-60(TB) leukemia.
In test [3] the test system is HOP-92 NSCLC.
Test [4] has as its system LOX IMVI melanoma.
For test [5], the system named is MDA-MB-435.
Test [6] deals with MOLT-4 leukemia.
Test [7] relates to NCI-H226 lung.
The test system of test [8] is NCI-H522 lung.
Test [9] concerns OVCAR-5 ovarian.
For test [10], the system named is PC-3 prostate.
Test [11] deals with RXF 393 renal.
In test [12] the test system is SF-539 CNS.
Test [13] has as its system SK-MEL-28 melanoma.
For test [14], the system named is SNB-19 CNS.
For test [15], the system named is SNB-75 CNS.
The subject of test [16] is U251 CNS.
The subject of test [17] is UO-31 renal.

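Exposure lasted 48 hours, with cells grown in 96-well plates and compounds tested at five concentrations. Definition used: TGI = concentration required for complete inhibition of growth.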 Where only a bound is given, the exact number is not on record here.

Take `O=C(CCC(=O)c1ccsc1)c1ccsc1`: the TGI in test [1], in [2], in test [3], in test [4], in [5] and in [6] was above 100 µM in each case. Further, the TGI in test [7], in [8], in test [9], in test [10], in test [11] and in test [12] was above 100 µM in each case. In addition, the TGI in [13], in [14], in [15], in test [16] and in test [17] was above 100 µM each time.

With `COC(=O)NC(=O)NC(Cc1ccccc1)NC(=O)OCc1ccccc1` (centres undefined), the TGI in [1] was 91.5 µM; in [2], above 100 µM; in test [3] it was 42.5 µM; in test [4] it was above 100 µM; in test [5], above 100 µM; in [6], above 100 µM. In addition, the TGI in test [7] was above 100 µM; in test [8], above 100 µM; in test [9] it was above 100 µM; in [10] it was above 100 µM; in test [11] it was 45.4 µM; in test [12], 71.4 µM. Also, the TGI in test [13] is above 100 µM; in test [14], above 100 µM; in test [15], 50.5 µM; in [16], above 100 µM; in test [17], above 100 µM.

As to `COc1cc(CN=c2nc(N(C)C)ss2)cc(OC)c1OC`, the TGI in test [1] was above 10 µM; in [2], 4.47 µM; in test [3], above 10 µM; in [4] it was 4.4 µM; in test [5], above 10 µM; in [6], 7.18 µM. Further, the TGI in test [7], in [8], in [9], in test [10], in [11] and in [12] was above 10 µM throughout. The TGI in [13], in test [14], in test [15], in test [16] and in test [17] was above 10 µM each time.

`COC1=C(C(c2cc(OC)c(OC)c(OC)c2)c2cc3c(cc2OC)OCO3)C(=O)OC1` (centres undefined): the TGI in [1] was above 71.9 µM; in test [2], 49.9 µM; in test [3], above 100 µM; in [4], above 100 µM; in [5], 17.5 µM; in test [6], above 100 µM. Moreover, the TGI is 79.7 µM in [7]; above 100 µM in [8]; above 100 µM in test [9]; above 70.4 µM in test [10]; 43.6 µM in [11]; 41.2 µM in test [12]. Moreover, the TGI in [13] was 87.9 µM; in test [14], above 95.6 µM; in [15] it was above 64.3 µM; in test [16], above 96.7 µM; in test [17] it was 54.9 µM.

On to `CC(=O)c1ccc(Br)cc1NC1=CC(=O)c2ncccc2C1=O`, for which the TGI turned out to be 5.85 µM in test [1]; 3.61 µM in test [2]; 26 µM in test [3]; 18.9 µM in test [4]; 3.06 µM in test [5]; 9.6 µM in test [6]. For the same compound, the TGI was 15.5 µM in test [7]; 10.4 µM in test [8]; 33.8 µM in test [9]; 13.5 µM in [10]; 18.7 µM in [11]; 6.96 µM in [12]. Moreover, the TGI in [13] worked out at 20.7 µM; in test [14], 11.3 µM; in [15], 5.58 µM; in test [16] it was 19.7 µM; in test [17], 15.8 µM.

For the compound `CC(C)=CCC[C@@H](C)[C@H]1CC[C@@]2(C)[C@@H]3CC[C@H]4C(C)(C)[C@@H](O)CC[C@@]45C[C@@]35CC[C@]12C`, the TGI was above 94.3 µM in [1]; above 95.4 µM in test [2]; 44.2 µM in test [3]; 56.5 µM in test [4]; above 68.8 µM in test [5]; above 87.2 µM in [6]. For the same compound, the TGI was above 74.5 µM in test [7]; 49.3 µM in [8]; above 100 µM in test [9]; above 100 µM in [10]; 45.1 µM in [11]; above 70.9 µM in test [12]. In addition, the TGI in test [13] is above 100 µM; in test [14], above 100 µM; in [15], above 100 µM; in test [16] it was 31.1 µM; in test [17], above 66.2 µM.

Consider `CCCCCCCCCCCCCCCCOCC(COP(=O)(O)OCC1OC(n2cc(CC)c(=O)[nH]c2=O)CC1O)OC(=O)CCCCCCCCCCCCCCC` (centres undefined), for which the TGI in test [1], in test [2], in test [3], in test [4], in test [5] and in [6] was above 100 µM each time. The TGI in [7], in test [8], in test [9], in test [10], in test [11] and in test [12] was above 100 µM throughout. In addition, the TGI in [13], in test [14], in [15], in [16] and in test [17] was above 100 µM in each case.
